According to US8133847B2, “Pyrido[2,3-B]pyrazine derivatives useful as herbicidal compounds” (Syngenta Limited, priority 2006, dated 2012):

Tests used:
Assay in all cases: Example B1 herbicidal action, post-emergence, 96-cell seed trays, climatic chamber
Type in all cases: in vivo
[1] = system: Nasturtium officinale (NAAOF); parameters: scale not given here; details: Application post-emergence, 1000 mg/l spray equivalent to 1000 g/ha, evaluated after 9 days (100=total damage to plant, 0=no damage to plant)
Procedure, shortened: (§1)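 Plants at 8–9 days post-sowing (23/17 °C, 13 h light, 50–60% humidity) sprayed post-emergence with 1000 mg/l active ingredient in 10% DMSO, equivalent to 1000 g/ha. Grown on at 24/19 °C, watered twice daily; damage scored after 9 days (0 = none, 100 = total).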

Solanum nigrum (SOLNI) = details: Application post-emergence, 1000 mg/l spray equivalent to 1000 g/ha, evaluated after 9 days (100=total damage to plant, 0=no damage to plant)
Procedure, shortened: as §1

[2] = system: Amaranthus retroflexus (AMARE); details: Application post-emergence, 1000 mg/l spray equivalent to 1000 g/ha, evaluated after 9 days
Procedure, shortened: as §1

Stellaria media (STEME) = details: Application post-emergence, 1000 mg/l spray equivalent to 1000 g/ha, evaluated after 9 days (100=total damage to plant, 0=no damage to plant)
Procedure, shortened: as §1

SMILES | damage to plant, Nasturtium officinale (NAAOF) [1] | damage to plant, Solanum nigrum (SOLNI) (Solanum nigrum (SOLNI)) | damage to plant, Amaranthus retroflexus (AMARE) [2] | damage to plant, Stellaria media (STEME) (Stellaria media (STEME))
CCc1cc(C)cc(CC)c1-c1c(OC(=O)C(C)C)c2nccnc2n(C)c1=O [Compound C65] | 7 | 3 | 4 | 6
CCn1c(=O)c(-c2cccc(Cl)c2)c(OC(C)=O)c2nccnc21 [Compound C66] | 7 | 0 | 0 | 7
CCn1c(=O)c(-c2ccc(Cl)cc2)c(OC(C)=O)c2nccnc21 [Compound C67] | 8 | 0 | 4 | 6
CC(C)C(=O)Oc1c(-c2cc(Cl)cc(Cl)c2Cl)c(=O)n(C)c2nccnc12 [Compound C68] | 5 | 0 | 0 | 5
COc1ccccc1-c1c(OC(=O)C(C)C)c2nccnc2n(C)c1=O [Compound C69] | 5 | 0 | 0 | 6
CCn1c(=O)c(-c2ccccc2OC)c(OC(=O)C(C)C)c2nccnc21 [Compound C70] | 4 | 0 | 0 | 3
CC(C)C(=O)Oc1c(-c2c(F)ccc(F)c2Cl)c(=O)n(C)c2ncc[n+]([O-])c12 [Compound C71, isobutyric acid 7-(2-chloro-3,6-difluorophenyl)-5-methyl-6-oxo-1-oxy-5,6-dihydropyrido[2,3-]pyrazin-8-yl ester] | 7 | 2 | 0 | 8
CCn1c(=O)c(-c2ccc(Cl)c(Cl)c2)c(OC(C)=O)c2nccnc21 [Compound C72] | 8 | 0 | 0 | 2
CC#CCOC(=O)Oc1c(-c2c(F)ccc(F)c2Cl)c(=O)n(C)c2nccnc12 [Compound C73] | 6 | 0 | 4 | 4
Cc1cc(C)c(-c2c(OC(=O)C(C)C)c3nccnc3n(C)c2=O)c(C)c1 [Compound C75] | 6 | 7 | 3 | 7
CC(C)C(=O)Oc1c(-c2c(Cl)cccc2C(F)(F)F)c(=O)n(C)c2nccnc12 [Compound C76] | 6 | 4 | 7 | 6
CCn1c(=O)c(-c2cccc(C(F)(F)F)c2Cl)c(OC(=O)C(C)C)c2nccnc21 [Compound C78] | 8 | 4 | 6 | 6
CC(C)C(=O)Oc1c(-c2c(Cl)ccc(Cl)c2Cl)c(=O)n(C)c2nccnc12 [Compound C79] | 5 | 6 | 6 | 7
CCn1c(=O)c(-c2c(Cl)cccc2C(F)(F)F)c(OC(=O)C(C)C)c2nccnc21 [Compound C80] | 6 | 2 | 7 | 8
CCn1c(=O)c(-c2c(C)cc(C)cc2C)c(OC(C)=O)c2nccnc21 [Compound C81] | 8 | 4 | 5 | 8
CC(C)C(=O)Oc1c(-c2c(F)ccc(F)c2Cl)c(=O)n(C)c2nc(Cl)cnc12 [Compound C82] | 0 | 0 | 4 | 0
CC(C)C(=O)Oc1c(-c2c(F)ccc(F)c2Cl)c(=O)n(C)c2ncc(Cl)nc12 [Compound C83] | 0 | 1 | 0 | 0
Cn1c(=O)c(-c2c(F)ccc(F)c2Cl)c(OC(=O)c2ccccc2)c2nccnc21 [Compound C84] | 5 | 8 | 6 | 7
COc1cccc(C(=O)Oc2c(-c3c(F)ccc(F)c3Cl)c(=O)n(C)c3nccnc23)c1 [Compound C85] | 3 | 4 | 5 | 4
Cn1c(=O)c(-c2c(F)ccc(F)c2Cl)c(OC(=O)c2ccco2)c2nccnc21 [Compound C86] | 6 | 7 | 7 | 6
CCC(C)C(=O)Oc1c(-c2c(F)ccc(F)c2Cl)c(=O)n(C)c2nccnc12 (stereo not drawn) [Compound C87] | 4 | 6 | 6 | 2
CCC(CC)C(=O)Oc1c(-c2c(F)ccc(F)c2Cl)c(=O)n(C)c2nccnc12 [Compound C89] | 5 | 4 | 5 | 5
CC(C)=CC(=O)Oc1c(-c2c(F)ccc(F)c2Cl)c(=O)n(C)c2nccnc12 [Compound C90] | 6 | 8 | 3 | 7
Cn1c(=O)c(-c2c(F)ccc(F)c2Cl)c(OC(=O)c2cccs2)c2nccnc21 [Compound C91] | 4 | 8 | 7 | 8
CCCCC(CC)C(=O)Oc1c(-c2c(F)ccc(F)c2Cl)c(=O)n(C)c2nccnc12 (stereo not drawn) [Compound C92] | 2 | 7 | 5 | 6
CCC(C(=O)Oc1c(-c2c(F)ccc(F)c2Cl)c(=O)n(C)c2nccnc12)c1ccccc1 (stereo not drawn) [Compound C94] | 7 | 4 | 5 | 6
CCCC(C)C(=O)Oc1c(-c2c(F)ccc(F)c2Cl)c(=O)n(C)c2nccnc12 (stereo not drawn) [Compound C95] | 7 | 5 | 6 | 7
